Nine molecules from publication PMC9927415, “Tyrosine Kinase Inhibitors Display Potent Activity against Cryptosporidium parvum” (Microbiology Spectrum, 2022) can be followed below.

Common to all, as to assay: KINOMEscan competitive binding, whole panel
Test [1] concerns the target T1, panel of 203 kinases (Homo sapiens, UniProt P11362).
T1 construct: purchased DiscoverX (KINOMEscan)
Conditions: 10 µM, n=1; kinase FGFR1; read-out: Percent inhibition FGFR1. The source says:
(§1) The kinases were expressed as fusions to T7 bacteriophage. This is a sensitive, competitive binding assay where test compounds were used to displace immobilized ATP-site binding probe ligands from kinases of interest. The amount of kinase that remained bound to the immobilized probe ligands on the solid support was quantified. Percentage inhibition data were was plotted on kinome trees using the web-based tool KinMap (http://www.kinhub.org/kinmap) ([60]).

Test [2] addresses T2, panel of 203 kinases (Homo sapiens, UniProt Q9HAZ1).
T2 construct: purchased DiscoverX (KINOMEscan)
The conditions noted are these: 10 µM, n=1; kinase CLK4; read-out: Percent inhibition CLK4.
Source text: as §1

For test [3], the target named is T3, panel of 203 kinases (Homo sapiens, UniProt P21709).
T3 construct: purchased DiscoverX (KINOMEscan)
T3 sequence (P21709 26-976): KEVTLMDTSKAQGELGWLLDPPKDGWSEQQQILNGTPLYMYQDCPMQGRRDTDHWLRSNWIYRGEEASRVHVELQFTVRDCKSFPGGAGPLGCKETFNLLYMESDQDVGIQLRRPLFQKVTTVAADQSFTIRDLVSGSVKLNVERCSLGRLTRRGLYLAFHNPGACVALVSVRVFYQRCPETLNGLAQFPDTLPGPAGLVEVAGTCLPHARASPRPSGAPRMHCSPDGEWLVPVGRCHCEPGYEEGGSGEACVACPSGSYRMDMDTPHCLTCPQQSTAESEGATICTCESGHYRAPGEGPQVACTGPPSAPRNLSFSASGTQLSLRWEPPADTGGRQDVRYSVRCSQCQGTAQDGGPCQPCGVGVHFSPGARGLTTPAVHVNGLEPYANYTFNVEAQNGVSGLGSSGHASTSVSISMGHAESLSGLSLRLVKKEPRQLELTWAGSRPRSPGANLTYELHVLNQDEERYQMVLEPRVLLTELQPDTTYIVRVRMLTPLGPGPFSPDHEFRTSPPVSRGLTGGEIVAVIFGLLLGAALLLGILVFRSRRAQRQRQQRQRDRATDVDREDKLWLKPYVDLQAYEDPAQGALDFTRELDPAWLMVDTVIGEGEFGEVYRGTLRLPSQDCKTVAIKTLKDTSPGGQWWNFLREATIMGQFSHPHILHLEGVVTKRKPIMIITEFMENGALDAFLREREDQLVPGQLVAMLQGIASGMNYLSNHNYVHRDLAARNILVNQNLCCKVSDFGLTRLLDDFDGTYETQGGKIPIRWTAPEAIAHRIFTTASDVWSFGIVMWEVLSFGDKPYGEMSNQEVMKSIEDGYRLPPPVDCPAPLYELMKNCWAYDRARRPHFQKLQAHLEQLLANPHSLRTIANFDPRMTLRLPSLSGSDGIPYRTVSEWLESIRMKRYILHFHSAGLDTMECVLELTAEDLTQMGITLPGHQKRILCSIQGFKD
Conditions: 10 µM, n=1; kinase EPHA1; read-out: Percent inhibition EPHA1.
Source text: as §1

Test [4] has as its target T4, panel of 203 kinases (Homo sapiens, UniProt P42684).
T4 construct: purchased DiscoverX (KINOMEscan)
Conditions: 10 µM, n=1; kinase ABL2; read-out: Percent inhibition ABL2.
Source text: as §1

Test [5] deals with T5, panel of 203 kinases (Homo sapiens, UniProt Q9P289).
T5 construct: purchased DiscoverX (KINOMEscan)
T5 sequence (Q9P289 whole entry): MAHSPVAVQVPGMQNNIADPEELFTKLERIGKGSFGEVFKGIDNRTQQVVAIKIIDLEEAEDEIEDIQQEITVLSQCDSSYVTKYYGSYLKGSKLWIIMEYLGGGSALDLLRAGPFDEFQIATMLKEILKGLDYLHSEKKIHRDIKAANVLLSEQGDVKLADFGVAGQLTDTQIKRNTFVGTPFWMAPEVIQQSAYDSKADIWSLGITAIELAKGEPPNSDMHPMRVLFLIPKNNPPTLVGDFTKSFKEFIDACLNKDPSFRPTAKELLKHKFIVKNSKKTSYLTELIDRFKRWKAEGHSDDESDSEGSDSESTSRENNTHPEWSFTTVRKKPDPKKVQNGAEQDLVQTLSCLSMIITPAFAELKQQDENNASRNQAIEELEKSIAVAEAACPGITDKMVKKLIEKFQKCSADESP
Conditions: 10 µM, n=1; kinase MST4; read-out: Percent inhibition MST4.
Source text: as §1

Test [6] concerns the target T6, panel of 203 kinases (Homo sapiens, UniProt P54760).
T6 construct: purchased DiscoverX (KINOMEscan)
T6 sequence (P54760 16-987): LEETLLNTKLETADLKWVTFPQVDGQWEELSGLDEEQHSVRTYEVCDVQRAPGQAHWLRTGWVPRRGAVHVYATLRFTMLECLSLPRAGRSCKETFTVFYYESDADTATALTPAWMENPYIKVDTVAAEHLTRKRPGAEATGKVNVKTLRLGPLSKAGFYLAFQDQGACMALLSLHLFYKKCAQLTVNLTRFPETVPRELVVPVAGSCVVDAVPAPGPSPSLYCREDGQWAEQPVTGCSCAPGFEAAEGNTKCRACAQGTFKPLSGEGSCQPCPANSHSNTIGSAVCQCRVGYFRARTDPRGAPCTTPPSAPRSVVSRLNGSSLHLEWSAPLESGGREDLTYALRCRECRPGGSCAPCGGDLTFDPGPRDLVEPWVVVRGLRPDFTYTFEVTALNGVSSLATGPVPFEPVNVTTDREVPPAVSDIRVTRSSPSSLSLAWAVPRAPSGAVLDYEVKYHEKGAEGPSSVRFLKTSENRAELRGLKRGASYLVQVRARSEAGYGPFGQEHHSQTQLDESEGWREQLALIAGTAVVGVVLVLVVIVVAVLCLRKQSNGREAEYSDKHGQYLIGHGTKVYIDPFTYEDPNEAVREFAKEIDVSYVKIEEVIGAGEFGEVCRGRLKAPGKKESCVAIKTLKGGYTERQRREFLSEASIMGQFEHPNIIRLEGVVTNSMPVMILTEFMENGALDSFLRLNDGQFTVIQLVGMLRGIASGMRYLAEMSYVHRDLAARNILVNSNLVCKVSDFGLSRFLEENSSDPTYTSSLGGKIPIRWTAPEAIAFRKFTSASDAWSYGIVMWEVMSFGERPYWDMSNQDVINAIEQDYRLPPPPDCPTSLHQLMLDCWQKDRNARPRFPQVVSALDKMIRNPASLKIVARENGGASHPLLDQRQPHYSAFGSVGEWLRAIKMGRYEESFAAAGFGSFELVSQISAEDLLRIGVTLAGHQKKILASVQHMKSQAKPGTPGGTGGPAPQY
The conditions noted are these: 10 µM, n=1; kinase EPHB4; read-out: Percent inhibition EPHB4.
Source text: as §1

Test [7] concerns the target T7, panel of 203 kinases (Homo sapiens, UniProt Q9P2K8, S808G).
T7 construct: purchased DiscoverX (KINOMEscan)
Conditions: 10 µM, n=1; kinase GCN2(Kin.Dom.2,S808G); read-out: Percent inhibition GCN2(Kin.Dom.2,S808G).
Source text: as §1

The target of test [8] is T8, panel of 203 kinases (Homo sapiens, UniProt P42685).
T8 construct: purchased DiscoverX (KINOMEscan)
T8 sequence (P42685 whole entry): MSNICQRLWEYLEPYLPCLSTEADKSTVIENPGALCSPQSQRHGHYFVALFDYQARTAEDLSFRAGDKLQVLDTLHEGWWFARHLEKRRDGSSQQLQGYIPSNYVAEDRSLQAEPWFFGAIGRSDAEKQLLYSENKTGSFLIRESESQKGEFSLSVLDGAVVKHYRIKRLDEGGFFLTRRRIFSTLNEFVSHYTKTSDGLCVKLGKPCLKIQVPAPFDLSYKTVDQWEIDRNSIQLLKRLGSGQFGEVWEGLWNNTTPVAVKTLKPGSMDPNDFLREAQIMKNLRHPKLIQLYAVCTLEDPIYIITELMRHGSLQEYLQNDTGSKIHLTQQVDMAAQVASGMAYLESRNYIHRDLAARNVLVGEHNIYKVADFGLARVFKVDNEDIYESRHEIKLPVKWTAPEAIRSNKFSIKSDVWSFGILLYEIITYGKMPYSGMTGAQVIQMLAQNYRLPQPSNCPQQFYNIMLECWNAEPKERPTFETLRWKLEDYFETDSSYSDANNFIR
The conditions noted are these: 10 µM, n=1; kinase FRK; read-out: Percent inhibition FRK.
Source text: as §1

The target in test [9] is T9, panel of 203 kinases (Homo sapiens, UniProt Q9HC98).
T9 construct: purchased DiscoverX (KINOMEscan)
T9 sequence (Q9HC98 whole entry): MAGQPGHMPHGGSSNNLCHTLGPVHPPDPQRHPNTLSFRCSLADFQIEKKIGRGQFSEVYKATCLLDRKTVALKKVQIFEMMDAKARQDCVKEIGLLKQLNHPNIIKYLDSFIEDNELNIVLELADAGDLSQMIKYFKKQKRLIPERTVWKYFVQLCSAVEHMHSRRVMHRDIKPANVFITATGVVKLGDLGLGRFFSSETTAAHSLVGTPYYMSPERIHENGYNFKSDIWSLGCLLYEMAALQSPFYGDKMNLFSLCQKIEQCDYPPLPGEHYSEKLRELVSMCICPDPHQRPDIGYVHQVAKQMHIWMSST
Conditions: 10 µM, n=1; kinase NEK6; read-out: Percent inhibition NEK6.
Source text: as §1

Test [10] has as its target T10, panel of 203 kinases (Homo sapiens, UniProt Q16584).
T10 construct: purchased DiscoverX (KINOMEscan)
The conditions noted are these: 10 µM, n=1; kinase MLK3; read-out: Percent inhibition MLK3.
Source text: as §1

Test [11] addresses T11, panel of 203 kinases (Homo sapiens, UniProt P54756).
T11 construct: purchased DiscoverX (KINOMEscan)
Conditions: 10 µM, n=1; kinase EPHA5; read-out: Percent inhibition EPHA5.
Source text: as §1

T2 sequence (Q9HAZ1 whole entry): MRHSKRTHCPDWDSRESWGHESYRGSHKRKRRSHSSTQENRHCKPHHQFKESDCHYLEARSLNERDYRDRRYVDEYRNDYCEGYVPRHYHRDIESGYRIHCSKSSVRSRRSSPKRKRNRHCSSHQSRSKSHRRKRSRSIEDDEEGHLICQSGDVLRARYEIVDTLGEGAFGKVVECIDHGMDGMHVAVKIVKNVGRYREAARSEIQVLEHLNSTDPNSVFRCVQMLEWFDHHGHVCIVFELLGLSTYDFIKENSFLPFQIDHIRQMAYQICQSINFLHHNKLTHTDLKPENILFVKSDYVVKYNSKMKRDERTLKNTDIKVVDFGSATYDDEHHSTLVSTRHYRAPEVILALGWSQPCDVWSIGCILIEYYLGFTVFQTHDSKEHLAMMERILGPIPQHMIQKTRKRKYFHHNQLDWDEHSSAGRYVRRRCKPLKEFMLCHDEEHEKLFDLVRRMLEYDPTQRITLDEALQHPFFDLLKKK
T4 sequence (P42684 whole entry): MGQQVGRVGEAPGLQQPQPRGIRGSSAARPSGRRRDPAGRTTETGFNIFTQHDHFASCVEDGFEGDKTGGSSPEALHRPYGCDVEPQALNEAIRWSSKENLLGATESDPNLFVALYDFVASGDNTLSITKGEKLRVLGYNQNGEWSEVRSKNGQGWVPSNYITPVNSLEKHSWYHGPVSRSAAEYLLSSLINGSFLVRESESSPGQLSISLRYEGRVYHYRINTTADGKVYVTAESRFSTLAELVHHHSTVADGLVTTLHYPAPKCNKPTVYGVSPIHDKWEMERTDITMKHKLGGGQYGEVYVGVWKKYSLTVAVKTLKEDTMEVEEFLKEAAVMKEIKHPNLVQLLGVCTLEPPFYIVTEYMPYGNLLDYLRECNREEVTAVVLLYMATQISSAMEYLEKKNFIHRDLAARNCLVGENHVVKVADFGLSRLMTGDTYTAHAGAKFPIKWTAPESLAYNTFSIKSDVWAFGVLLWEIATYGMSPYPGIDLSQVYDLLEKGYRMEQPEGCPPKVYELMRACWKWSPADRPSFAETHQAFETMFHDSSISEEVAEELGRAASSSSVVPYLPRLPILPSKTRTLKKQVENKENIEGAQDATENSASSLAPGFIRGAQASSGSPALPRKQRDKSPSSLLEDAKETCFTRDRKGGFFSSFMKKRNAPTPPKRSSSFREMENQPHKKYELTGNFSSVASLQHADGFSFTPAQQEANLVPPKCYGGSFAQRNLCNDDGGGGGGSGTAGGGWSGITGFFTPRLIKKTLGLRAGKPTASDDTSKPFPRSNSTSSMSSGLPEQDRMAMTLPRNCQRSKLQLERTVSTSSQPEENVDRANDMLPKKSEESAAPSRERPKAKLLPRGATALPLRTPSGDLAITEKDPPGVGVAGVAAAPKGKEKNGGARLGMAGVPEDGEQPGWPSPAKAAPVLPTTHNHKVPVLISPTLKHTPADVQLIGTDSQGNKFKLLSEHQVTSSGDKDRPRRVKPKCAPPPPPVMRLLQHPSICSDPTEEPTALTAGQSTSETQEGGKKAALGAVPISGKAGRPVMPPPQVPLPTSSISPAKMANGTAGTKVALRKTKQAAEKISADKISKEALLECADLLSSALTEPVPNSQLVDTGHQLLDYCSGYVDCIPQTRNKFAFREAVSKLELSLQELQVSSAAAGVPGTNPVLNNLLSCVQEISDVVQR
T11 sequence (P54756 25-1037): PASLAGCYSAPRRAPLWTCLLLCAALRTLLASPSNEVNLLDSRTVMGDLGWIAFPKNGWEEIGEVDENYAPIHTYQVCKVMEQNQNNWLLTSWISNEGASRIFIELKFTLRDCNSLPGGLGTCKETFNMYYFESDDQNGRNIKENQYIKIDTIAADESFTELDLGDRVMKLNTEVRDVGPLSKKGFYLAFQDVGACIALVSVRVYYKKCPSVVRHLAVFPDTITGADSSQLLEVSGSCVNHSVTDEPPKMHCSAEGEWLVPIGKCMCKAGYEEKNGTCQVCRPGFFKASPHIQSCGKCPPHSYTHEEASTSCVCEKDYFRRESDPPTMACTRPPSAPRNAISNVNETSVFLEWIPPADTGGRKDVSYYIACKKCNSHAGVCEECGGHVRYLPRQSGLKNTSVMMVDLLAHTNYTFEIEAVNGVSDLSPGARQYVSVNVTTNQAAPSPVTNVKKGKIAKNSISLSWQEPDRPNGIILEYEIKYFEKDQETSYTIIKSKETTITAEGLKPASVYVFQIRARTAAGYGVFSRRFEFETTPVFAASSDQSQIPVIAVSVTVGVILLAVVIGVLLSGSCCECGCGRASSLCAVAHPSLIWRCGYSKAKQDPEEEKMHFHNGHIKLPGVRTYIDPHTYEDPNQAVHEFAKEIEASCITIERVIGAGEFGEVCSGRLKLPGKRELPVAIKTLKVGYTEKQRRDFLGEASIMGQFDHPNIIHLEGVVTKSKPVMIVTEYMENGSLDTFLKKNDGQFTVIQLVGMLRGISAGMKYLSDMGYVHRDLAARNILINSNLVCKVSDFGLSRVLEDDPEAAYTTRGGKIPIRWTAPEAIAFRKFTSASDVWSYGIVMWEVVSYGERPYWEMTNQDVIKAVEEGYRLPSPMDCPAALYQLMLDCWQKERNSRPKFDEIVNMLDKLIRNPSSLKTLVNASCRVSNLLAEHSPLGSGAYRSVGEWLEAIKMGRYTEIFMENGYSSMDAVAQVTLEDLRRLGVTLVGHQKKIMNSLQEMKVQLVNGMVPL
T1 sequence (P11362 22-822): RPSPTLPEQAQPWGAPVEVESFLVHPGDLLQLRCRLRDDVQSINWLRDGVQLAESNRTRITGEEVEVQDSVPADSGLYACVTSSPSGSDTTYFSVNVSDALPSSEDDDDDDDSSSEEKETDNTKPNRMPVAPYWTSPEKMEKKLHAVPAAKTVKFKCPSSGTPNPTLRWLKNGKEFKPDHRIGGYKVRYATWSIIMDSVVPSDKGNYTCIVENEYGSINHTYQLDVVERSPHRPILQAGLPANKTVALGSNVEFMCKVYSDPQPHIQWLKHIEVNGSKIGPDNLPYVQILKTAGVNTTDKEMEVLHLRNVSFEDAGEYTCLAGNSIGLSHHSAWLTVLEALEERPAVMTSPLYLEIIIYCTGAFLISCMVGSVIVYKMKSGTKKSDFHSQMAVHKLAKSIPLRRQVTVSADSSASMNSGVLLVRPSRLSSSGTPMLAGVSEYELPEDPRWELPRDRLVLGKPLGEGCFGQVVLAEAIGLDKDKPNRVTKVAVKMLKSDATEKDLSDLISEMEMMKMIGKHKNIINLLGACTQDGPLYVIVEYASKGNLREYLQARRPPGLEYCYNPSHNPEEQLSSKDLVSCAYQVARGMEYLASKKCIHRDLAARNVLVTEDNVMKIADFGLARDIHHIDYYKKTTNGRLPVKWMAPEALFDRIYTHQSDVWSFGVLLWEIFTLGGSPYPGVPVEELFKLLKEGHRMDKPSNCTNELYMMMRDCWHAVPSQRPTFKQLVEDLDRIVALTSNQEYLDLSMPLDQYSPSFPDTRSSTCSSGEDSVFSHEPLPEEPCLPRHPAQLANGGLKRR

One may read the inhibition as the relative decrease from the control value, in per cent. Turning to `CN1CCN(c2ccc(Nc3nccc(-c4cnn5ncccc45)n3)cc2C#N)CC1` [Compound 1], the inhibition at 10 µM was found to be 74.1% in test [1]; 99.5% in [2]; 94.3% in test [3]; 95% in test [4]; 92.8% in [5]; 0% in test [6]. The inhibition at 10 µM in [7] was 99.7%; in test [8], 91.8%; in [9], 100%; in [10], 0%; in test [11], 80.2%.
Regarding `COc1ccc(Nc2nccc(-c3cnn4ncccc34)n2)cc1` [Compound 2], the inhibition at 10 µM was determined as 0% in [1]; 98.7% in test [2]; 92.5% in test [3]; 92.5% in test [4]; 0% in test [5]; 0% in test [6]. For the same molecule, the inhibition at 10 µM in [7] stood at 98.2%; in test [8] it was 0%; in test [9] it was 100%; in [10] it was 75.5%; in [11], 91.8%.
As for `Cc1ccc(O)cc1Nc1ccnc(Nc2cccc(C(N)=O)c2)n1` [Compound 3], the inhibition at 10 µM in test [1] came to 0%; in test [2] it was 0%; in test [3] it was 100%; in test [4], 100%; in test [5], 0%; in [6], 100%. In addition, the inhibition at 10 µM came out at 0% in [7]; 99.6% in test [8]; 0% in test [9]; 69.4% in [10]; 100% in test [11].
For the molecule `Cc1ccc(O)cc1N(C)c1ccnc(Nc2cccc(S(N)(=O)=O)c2)n1` [Compound 4], the inhibition at 10 µM worked out at 0% in test [1]; 0% in [2]; 100% in [3]; 100% in test [4]; 0% in test [5]; 100% in [6]. Moreover, the inhibition at 10 µM in test [7] came to 0%; in test [8], 99.5%; in test [9], 0%; in [10], 81%; in [11], 100%.
On to `Fc1cccc(COc2ccc(Nc3ncnc4c3CN(CCN3CCOCC3)CC4)cc2Cl)c1` [Compound 6], for which the inhibition at 10 µM in test [1], in test [2], in test [3], in test [4], in test [5] and in test [6] was 0% in each case. The inhibition at 10 µM in [7], in [8], in test [9], in [10] and in test [11] was 0% throughout.
In the case of `COc1cc(Nc2nccc(-c3sc(N)nc3-c3cccc(NC(=O)c4c(F)cccc4F)c3)n2)cc(OC)c1OC` [Compound 7], the inhibition at 10 µM in [1] amounted to 99.7%; in [2], 0%; in test [3], 100%; in [4], 100%; in [5], 89.2%; in [6], 91.9%. In addition, the inhibition at 10 µM in [7] is 99.9%; in test [8], 100%; in test [9], 97.4%; in [10], 99.8%; in test [11], 100%.
On to `C[C@@H](Oc1cc(-c2cnc3ccccn23)sc1C(N)=O)c1ccccc1Cl` [Compound 8], for which the inhibition at 10 µM was found to be 0% in test [1]; 81% in test [2]; 0% in test [3]; 0% in [4]; 0% in [5]; 0% in test [6]. Moreover, the inhibition at 10 µM is 86.6% in test [7]; 0% in test [8]; 0% in test [9]; 0% in test [10]; 0% in test [11].
`c1ccc(COc2cccc(-c3ccnc4[nH]ccc34)c2)cc1` [Compound 9]: the inhibition at 10 µM in test [1], in [2], in [3], in [4], in [5] and in [6] was 0% in each case. Moreover, the inhibition at 10 µM in test [7], in test [8], in test [9], in [10] and in [11] was 0% throughout.
As to `Clc1ccc(Nc2ncc(-c3ccccc3)s2)cc1` [Compound 10], the inhibition at 10 µM in [1], in test [2], in [3], in test [4], in [5] and in test [6] was 0% each time. Further, the inhibition at 10 µM in [7], in test [8], in [9], in [10] and in test [11] was 0% throughout.
